According to ChEMBL document CHEMBL1148672, “Mimicking the biological activity of diazobenzo[b]fluorene natural products with electronically tuned diazofluorene analogs” (2006):
The source made the active and inactive calls. The calls are words filed in the database; no cut-off is given here.

Legend:
[1] = test system: Nucleic Acid; assay: Cleavage of supercoiled DNA plasmid pBR322 after 2 days; type: nucleic-acid assay
[2] = test system: Nucleic Acid; assay: Conversion of type 1 supercoiled DNA to type 2 nicked DNA; type: nucleic-acid assay; parameters: concentration or dose not given beside the values
[3] = test system: Nucleic Acid; assay: Cleavage of supercoiled DNA plasmid pBR322 after 2 days in presence of dithiothreitol; type: nucleic-acid assay
[4] = test system: Nucleic Acid; assay: Conversion of type 1 supercoiled DNA to type 2 nicked DNA in presence of dithiothreitol; type: nucleic-acid assay; parameters: concentration or dose not given beside the values
[5] = test system: Nucleic Acid; assay: Conversion of type 1 supercoiled DNA to type 2 nicked DNA in presence of dithiothreitol relative to Kinamycin D; type: nucleic-acid assay
[6] = test system: HeLa; assay: Antiproliferative activity against HeLa cells at 100 nM; type: functional, cell-based; settings: Homo sapiens
[7] = test system: HeLa; assay: Antiproliferative activity against HeLa cells at 100 nM after 12 hrs; type: functional; settings: Homo sapiens
[8] = test system: Nucleic Acid; assay: Cleavage of supercoiled DNA plasmid pBR322 after 2 days in presence of sodium cyanide; type: nucleic-acid assay
[9] = test system: Nucleic Acid; assay: Cleavage of supercoiled DNA plasmid pBR322 after 2 days in presence of NADPH; type: nucleic-acid assay

Row | Structure (SMILES) | Activity [1] | Activity [2] [%] | Activity [4] [%] | further results
1 | CC(=O)O[C@@H]1c2c(c3c(=O)c4cccc(O)c4c(=O)c=3c2=[N+]=[N-])[C@H](O)[C@@H](OC(C)=O)[C@]1(C)O | inactive | < 5 | 28 | Activity [3]: Time-dependent effect
2 | [N-]=[N+]=C1c2ccccc2-c2ccccc21 |  | < 5 | < 5 | 
3 | [N-]=[N+]=C1c2ccccc2-c2c1cccc2[N+](=O)[O-] |  | < 5 | < 5 | 
4 | COc1cccc2c1C(=O)c1ccccc1-2 | inactive |  |  | 
5 | COc1ccc(OC)c2c1C(=[N+]=[N-])c1ccccc1-2 |  | < 5 | 9 | 
6 | [N-]=[N+]=C1c2ccccc2-c2cccc(Cl)c21 |  | < 5 | < 5 | 
7 | Nc1cccc2c1-c1ccccc1C2=O | inactive |  |  | 
8 | [N-]=[N+]=c1c2c(=O)ccc(=O)c=2c2ccccc12 |  | < 5 | 10 | 
9 | [N-]=[N+]=C1c2ccccc2-c2cccc([N+](=O)[O-])c21 |  | < 5 | < 5 | 
10 | [N-]=[N+]=C1c2ccccc2-c2c(N)cccc21 | Active | 44 | 18 | Activity [5]: 64%; Activity [3]: Active
11 | [N-]=[N+]=C1c2ccccc2-c2c(Cl)cccc21 |  | < 5 | < 5 | 
12 | COc1cccc2c1-c1ccccc1C2=[N+]=[N-] |  | < 5 | 13 | 
13 | COc1cccc2c1C(=[N+]=[N-])c1ccccc1-2 |  | 11 | 41 | Activity [5]: 150%; Activity [6]: Time-dependent effect; inhibition at 0.1 µM [7]: 35%; Activity [8]: inactive; Activity [9]: inactive
